From US6444234B1, “Compositions for rapid and non-irritating transdermal delivery of pharmaceutically active agents and methods for formulating such compositions and delivery thereof” (priority 1998, dated 2002)

Legend:
[1] = Pilot trial on three hairless rats, blood samples after topical delivery system; assay type: in vivo, hairless rat
Method: A pilot trial is performed on three hairless rats, during which a baseline blood sample is drawn, then 1 ml of the topical delivery system containing a titrated dose of each of the three test drugs is administered to each of the rats. Samples are harvested at 30 and 60 minutes.

[2] = Laboratory solubilization of amitriptyline in the modified stock delivery system; assay type: physicochemical; conditions: modified SDS; predicted amount within experimental error of the actual amount
From the text: The following Table 4 illustrates how the balancing of molar van der Waals forces can be utilized as a predictor of the solubilization of amitriptyline in the stock delivery system. In this case the calculations for balancing molar van der Waals forces were made first using the Chem3D software and the solutions were thereafter formulated in the laboratory. The amount predicted to dissolve, 2.08 gm per 100 c.c., was within experimental error of the actual amount which would dissolve in the laboratory experiment. In this case, the system was balanced by increasing the amounts of methylsulfonylmethane and ethanol and decreasing the amount of propylene glycol.

[3] = assay type: physicochemical
From the text: The following tables are typical data sheets generated by the Chem3D software. These charts confirm the independent experimental solubility data and also, in Tables 1-3, show how modulation of the carrier system allows a higher dose of the test medicament, Diosgenin (MW=414.61).
It is pointed out, however, that the formulations shown in the following Tables, and which are based on the above described Stock Delivery System, were originally prepared without benefit of the use of the Chem 3D software and included omission of several different modifiers. Modifications to the SDS to effect solubilization and increase solute solvent ratios were made by the inventor on the basis of knowledge of how and where the solute (drug) works in the body and using this information to make intuitive predictions of how the solute would interact with the surrounding molecules of the SDS, such as induced polarities relative to other molecules; induction of electric fields due to influence of surrounding molecules; hydrophobic versus hydrophilic properties, etc., while always taking into consideration the desired functional effects contributed by each ingredient. […]

[4] = Full-scale protocol trial on 15 hairless rats; conditions: topical
Method: Samples for the morphine and acyclovir groups are taken at 30 minutes, 60 minutes and 120 minutes.

air pouch granulomas = assay: Murine Chronic Granulomatous Air-Pouch Model; assay type: in vivo, mouse; conditions: normally sub-effective dose (30 mg/kg); decrease in dry weight of the granuloma
From the text: This example describes the results of an animal (mouse) study performed at St. Bartholomew's and The Royal London School of Medicine and Dentistry, Department of Experimental Pathology, to establish the efficacy of the topical delivery system, based on the Stock Delivery System of this invention for transdermal delivery of Cystamine (2,2′-dithiobisethanamine). A Murine Chronic Granulomatous Air-Pouch Model was used for evaluation of the delivery of the drug with SDS versus a control vehicle alone; control vehicle plus drug; and SDS alone.
In this study, 1 milligram (mg) of cystamine was added to 0.5 cc of Standard Stock Solution (SDS) as previously described, or to a control vehicle (aqueous isopropanol). In each case, the active ingredient (cystamine) was administered in an amount of 30 mg per kilogram of body weight.
Mice (TO or BALB/c, for hormone studies, 30±5 g) were lightly anaesthetized with halothane. Three milliliters of air were injected subcutaneously into the scruff of the neck using a 25 G needle. The shape of the air pouch was controlled by manipulation during inflation. […]
Vascularity was assessed by a modified form (see Kimura et al, [need citation] 1986) of the Carmine Red Vascular Casting technique. […] The dye content was measured spectrophotometrically at 490 nm against a standard curve of dye from 1-100 μg/ml. […]

Question: For `Nc1nc2c(ncn2COCCO)c(=O)[nH]1` [Acyclovir], which “blood sample level, Baseline” value ([1]; hairless, rat, in vivo) is on record?
Answer: 0

Question: Which “actual amount which would dissolve in the laboratory experiment” value [2] does the source give for `CN(C)CCC=C1c2ccccc2CCc2ccccc21` [Amitriptyline] here?
Answer: ~2.08 gm per 100 c.c.

Question: Which “increase of solubilized dose” value [3] does the source give for `C[C@@H]1CC[C@@]2(OC1)O[C@H]1C[C@H]3[C@@H]4CC=C5C[C@@H](O)CC[C@]5(C)[C@H]4CC[C@]3(C)[C@H]1[C@@H]2C` [Diosgenin, (25R)-Spirost-5-en-3β-ol] here?
Answer: ~5 fold

Question: What does the source list for `C[C@]12CC[C@H]3[C@@H](CCC4=CC(=O)CC[C@@]43C)[C@@H]1CC[C@@H]2O` [Testosterone]?
Answer: blood sample level, 30 minutes ([1]; testosterone 5 mg in 1 ml, topical): 1,552 ng/dl; increase of testosterone levels ([4]; in one hour, 5 mg in 1 ml): 10 fold

Question: With `NCCSSCCN` [cystamine, 2,2′-dithiobisethanamine] as the molecule, how does the “efficacy of the dose when delivered with SDS” value (air pouch granulomas) read?
Answer: effective dose

Question: What does the source list for `CN1CC[C@]23c4c5ccc(O)c4O[C@H]2[C@@H](O)C=C[C@H]3[C@H]1C5.O=S(=O)(O)O` [morphine sulfate]?
Answer: blood sample level, Baseline ([1]; before 1 ml of the topical delivery system): 0; blood sample level, 60 minutes ([1]; morphine 2.5 mg in 1 ml, topical): 45 nmol/L; blood levels compared with intravenous dosing ([4]; 2.5 mg dose of morphine): equivalent to a 10 mg IV dose
